Results from patent US10584115B2, “Substituted pyridine and pyrazine BMI-1 inhibitors” (PTC Therapeutics, Inc., priority 2013, dated 2020).
Like-named read-outs stand apart in the source and are kept apart here.

How the values were obtained:
Bmi-1 protein = test: Sandwich ELISA Assay (Bmi-1 protein level in HT-1080 cells after compound treatment); assay type: cell-based
Method in brief: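 Sandwich ELISA quantified Bmi-1 protein against recombinant standard (125–8000 pg/mL), with lysates captured overnight at 4 °C and signal by HRP/TMB at 450 nm (570 nm reference). Lysates came from HT-1080 cells incubated 40–48 h with test compounds in 0.5% DMSO.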

[1] = read-out: ELISA EC50 value for Bmi-1 protein, Table 1, Bmi-1 sandwich ELISA
[2] = Table 1, Bmi-1 sandwich ELISA, read-out: ELISA EC50 value for Bmi-1 protein

Row | SMILES | melting point | EC50 (Bmi-1 protein; [1]) | EC50 (Bmi-1 protein; [2])
1 | FC(F)(F)c1ccc(Nc2cncc(-c3c(C4CC4)nc4ccccn34)n2)cc1 [compound 129, 6-(2-cyclopropylimidazo[1,2-a]pyridin-3-yl)-N-[4-(trifluoromethyl)phenyl]pyrazin-2-amine] | 215 to 217 °C | 1 to 10 nM | –
2 | FC(F)Oc1ccc(Nc2cncc(-c3c(C4CC4)nc4ccccn34)n2)cc1 [compound 130, 6-(2-cyclopropylimidazo[1,2-a]pyridin-3-yl)-N-[4-(difluoromethoxy)phenyl]pyrazin-2-amine] | 208 to 210 °C | – | 1 to 10 nM
3 | FC(F)(F)c1ccc(Nc2cncc(-c3c(C4CCC4)nc4ccccn34)n2)cc1 [compound 131, 6-(2-cyclobutylimidazo[1,2-a]pyridin-3-yl)-N-[4-(trifluoromethyl)phenyl]pyrazin-2-amine] | 218 to 219 °C | – | 1 to 10 nM
4 | Cc1nn(C)c(C)c1-c1cccc(Nc2ccc(C(F)(F)F)cc2)n1 [compound 145, N-[4-(trifluoromethyl)phenyl]-6-(1,3,5-trimethyl-1H-pyrazol-4-yl)pyridin-2-amine] | 48 to 50 °C | – | 10 to 100 nM
5 | Cc1nn(C)c(C)c1-c1cccc(Nc2ccc(OC(F)F)cc2)n1 [compound 146, N-[4-(difluoromethoxy)phenyl]-6-(1,3,5-trimethyl-1H-pyrazol-4-yl)pyridin-2-amine] | 71 to 72 °C | – | 10 to 100 nM
6 | Cc1cnc(Nc2cccc(-c3c(C(F)(F)F)nc4ccccn34)n2)s1 [compound 147, N-(5-methyl-1,3-thiazol-2-yl)-6-[2-(trifluoromethyl)imidazo[1,2-a]pyridin-3-yl]pyridin-2-amine] | 270 to 271 °C | – | 100 to 3000 nM
7 | Cc1csc(Nc2cccc(-c3c(C(F)(F)F)nc4ccccn34)n2)n1 [compound 148, N-(4-methyl-1,3-thiazol-2-yl)-6-[2-(trifluoromethyl)imidazo[1,2-a]pyridin-3-yl]pyridin-2-amine] | 259 to 261 °C | – | 10 to 100 nM
8 | Cc1nc(Nc2cccc(-c3c(C(F)(F)F)nc4ccccn34)n2)sc1C [compound 149, N-(4,5-dimethyl-1,3-thiazol-2-yl)-6-[2-(trifluoromethyl)imidazo[1,2-a]pyridin-3-yl]pyridin-2-amine] | 227 to 228 °C | – | 100 to 3000 nM
9 | FC(F)(F)c1nc2ccccn2c1-c1cncc(Nc2ccc(C3CC3)cc2)n1 [compound 165, N-(4-cyclopropylphenyl)-6-[2-(trifluoromethyl)imidazo[1,2-a]pyridin-3-yl]pyrazin-2-amine] | 317 to 320 °C | – | 1 to 10 nM
10 | CCn1nc(C)c(-c2cncc(Nc3ccc(C(F)(F)F)cc3)n2)c1C [compound 175, 6-(1-ethyl-3,5-dimethyl-1H-pyrazol-4-yl)-N-[4-(trifluoromethyl)phenyl]pyrazin-2-amine] | 78 to 79 °C | 1 to 10 nM | –
11 | CCS(=O)(=O)n1nc(C)c(-c2cncc(Nc3ccc(C(F)(F)F)cc3)n2)c1C [compound 176, 6-[1-(ethylsulfonyl)-3,5-dimethyl-1H-pyrazol-4-yl]-N-[4-(trifluoromethyl)phenyl]pyrazin-2-amine] | 70 to 71 °C | – | 10 to 100 nM
12 | COC(=O)c1ccc2nc(C(F)(F)F)c(-c3cncc(Nc4ccc(OC(F)F)cc4)n3)n2c1 [compound 178, methyl 3-(6-{[4-(difluoromethoxy)phenyl]amino}pyrazin-2-yl)-2-(trifluoromethyl)imidazo[1,2-a]pyridine-6-carboxylate] | 227 to 229 °C | – | 100 to 3000 nM
13 | CCc1nc(C)cn1-c1cncc(Nc2ccc(C(F)(F)F)cc2)n1 [compound 179, 6-(2-ethyl-4-methyl-1H-imidazol-1-yl)-N-[4-(trifluoromethyl)phenyl]pyrazin-2-amine] | 207 to 208 °C | 100 to 3000 nM | –
14 | CCc1nc(C)cn1-c1cncc(Nc2ccc(OC(F)F)cc2)n1 [compound 180, N-[4-(difluoromethoxy)phenyl]-6-(2-ethyl-4-methyl-1H-imidazol-1-yl)pyrazin-2-amine] | 168 to 169 °C | – | 100 to 3000 nM
15 | Cc1nc2ccccn2c1-c1cncc(Nc2ccc(C(F)(F)F)cc2)n1 [compound 202, 6-(2-methylimidazo[1,2-a]pyridin-3-yl)-N-[4-(trifluoromethyl)phenyl]pyrazin-2-amine] | 180 to 182 °C | – | < 1 nM
16 | Cc1nc2cc(F)ccc2n1-c1cncc(Nc2ccc(C(F)(F)F)cc2)n1 [compound 204, 6-(5-fluoro-2-methyl-1H-benzimidazol-1-yl)-N-[4-(trifluoromethyl)phenyl]pyrazin-2-amine] | 272 to 275 °C | – | 10 to 100 nM

Row | SMILES | melting point | EC50 (Bmi-1 protein; [1]) | EC50 (Bmi-1 protein; [2])
17 | Cc1nc2cc(F)ccc2n1-c1cncc(Nc2ccc(OC(F)F)cc2)n1 [compound 205, N-[4-(difluoromethoxy)phenyl]-6-(5-fluoro-2-methyl-1H-benzimidazol-1-yl)pyrazin-2-amine] | 239 to 241 °C | – | 10 to 100 nM
18 | Cc1nc2cc(F)ccc2n1-c1cncc(Nc2ccc(OC(F)(F)F)cc2)n1 [compound 206, 6-(5-fluoro-2-methyl-1H-benzimidazol-1-yl)-N-[4-(trifluoromethoxy)phenyl]pyrazin-2-amine] | 248 to 250 °C | – | 100 to 3000 nM
19 | Fc1ccc2c(c1)nc(C1CC1)n2-c1cncc(Nc2ccc(OC(F)F)cc2)n1 [compound 227, 6-(2-cyclopropyl-5-fluoro-1H-benzimidazol-1-yl)-N-[4-(difluoromethoxy)phenyl]pyrazin-2-amine] | 188 to 190 °C | – | 10 to 100 nM
20 | Cc1nc2ccc(F)cc2n1-c1cncc(Nc2ccc(C(F)(F)F)cc2)n1 [compound 228, 6-(6-fluoro-2-methyl-1H-benzimidazol-1-yl)-N-[4-(trifluoromethyl)phenyl]pyrazin-2-amine] | 243 to 245 °C | 1 to 10 nM | –
21 | Cc1nc2ccc(F)cc2n1-c1cncc(Nc2ccc(OC(F)F)cc2)n1 [compound 229, N-[4-(difluoromethoxy)phenyl]-6-(6-fluoro-2-methyl-1H-benzimidazol-1-yl)pyrazin-2-amine] | 200 to 202 °C | – | 1 to 10 nM
22 | Cc1nc2ccc(F)cc2n1-c1cncc(Nc2ccc(OC(F)(F)F)cc2)n1 [compound 230, 6-(6-fluoro-2-methyl-1H-benzimidazol-1-yl)-N-[4-(trifluoromethoxy)phenyl]pyrazin-2-amine] | 215 to 217 °C | – | 10 to 100 nM
23 | Cc1nc2ccc(F)cn2c1-c1cncc(Nc2ccc(C(F)(F)F)cc2)n1 [compound 244, 6-(6-fluoro-2-methylimidazo[1,2-a]pyridin-3-yl)-N-[4-(trifluoromethyl)phenyl]pyrazin-2-amine] | 160 to 162 °C | – | 1 to 10 nM
24 | Cc1nc2ccc(F)cn2c1-c1cncc(Nc2ccc(OC(F)F)cc2)n1 [compound 245, N-[4-(difluoromethoxy)phenyl]-6-(6-fluoro-2-methylimidazo[1,2-a]pyridin-3-yl)pyrazin-2-amine] | 171 to 173 °C | – | 1 to 10 nM
25 | Cc1nc2ccc(F)cn2c1-c1cncc(Nc2ccc(OC(F)(F)F)cc2)n1 [compound 246, 6-(6-fluoro-2-methylimidazo[1,2-a]pyridin-3-yl)-N-[4-(trifluoromethoxy)phenyl]pyrazin-2-amine] | 163 to 165 °C | – | 1 to 10 nM
26 | Cc1nc2ccc(F)cn2c1-c1cc(C#N)cc(Nc2ccc(C(F)(F)F)cc2)n1 [compound 247, 2-(6-fluoro-2-methylimidazo[1,2-a]pyridin-3-yl)-6-{[4-(trifluoromethyl)phenyl]amino}pyridine-4-carbonitrile] | 241 to 243 °C | – | 1 to 10 nM
27 | Cc1nc2ccc(F)cn2c1-c1cc(C#N)cc(Nc2ccc(OC(F)F)cc2)n1 [compound 248, 2-{[4-(difluoromethoxy)phenyl]amino}-6-(6-fluoro-2-methylimidazo[1,2-a]pyridin-3-yl)pyridine-4-carbonitrile] | 221 to 223 °C | – | 1 to 10 nM
28 | Cc1nc2ccc(F)cn2c1-c1cc(C#N)cc(Nc2ccc(OC(F)(F)F)cc2)n1 [compound 249, 2-(6-fluoro-2-methylimidazo[1,2-a]pyridin-3-yl)-6-{[4-(trifluoromethoxy)phenyl]amino}pyridine-4-carbonitrile] | 209 to 210 °C | – | 10 to 100 nM
29 | FC(F)(F)c1ccc(Nc2cncc(-c3c(C4CC4)nc4ccc(C(F)(F)F)cn34)n2)cc1 [compound 250, 6-[2-cyclopropyl-6-(trifluoromethyl)imidazo[1,2-a]pyridin-3-yl]-N-[4-(trifluoromethyl)phenyl]pyrazin-2-amine] | 240 to 241 °C | 10 to 100 nM | –
30 | FC(F)(F)Oc1ccc(Nc2cncc(-c3c(C4CC4)nc4ccc(C(F)(F)F)cn34)n2)cc1 [compound 252, 6-[2-cyclopropyl-6-(trifluoromethyl)imidazo[1,2-a]pyridin-3-yl]-N-[4-(trifluoromethoxy)phenyl]pyrazin-2-amine] | 213 to 215 °C | – | 100 to 3000 nM
31 | Cc1nn(CC(F)(F)F)c(C)c1-c1cncc(Nc2ccc(C(F)(F)F)cc2)n1 [compound 253, 6-[3,5-dimethyl-1-(2,2,2-trifluoroethyl)-1H-pyrazol-4-yl]-N-[4-(trifluoromethyl)phenyl]pyrazin-2-amine] | 90 to 91 °C | 1 to 10 nM | –
32 | CCc1nc2ccc(F)cc2n1-c1cncc(Nc2ccc(C(F)(F)F)cc2)n1 [compound 259, 6-(2-ethyl-6-fluoro-1H-benzimidazol-1-yl)-N-[4-(trifluoromethyl)phenyl]pyrazin-2-amine] | 267 to 269 °C | – | 1 to 10 nM
